Assay results published in article PMC4822888, “Subtype-Selective Small Molecule Inhibitors Reveal a Fundamental Role for Nav1.7 in Nociceptor Electrogenesis, Axonal Conduction and Presynaptic Release” (PLoS ONE, 2016).

Tests used:
Serotonin 5-HT6 = Serotonin 5-HT6 (Homo sapiens, UniProt P50406); test: Off target activity panel; assay type: binding; conditions: read-out: Inhibition at test concentration (%)
PPAR gamma = target: T1, PPAR gamma (Homo sapiens, UniProt P37231); test: Off target panel, functional activity (agonist/antagonist); assay type: biochemical; conditions: at 10 µM
T1 sequence (P37231 1-505): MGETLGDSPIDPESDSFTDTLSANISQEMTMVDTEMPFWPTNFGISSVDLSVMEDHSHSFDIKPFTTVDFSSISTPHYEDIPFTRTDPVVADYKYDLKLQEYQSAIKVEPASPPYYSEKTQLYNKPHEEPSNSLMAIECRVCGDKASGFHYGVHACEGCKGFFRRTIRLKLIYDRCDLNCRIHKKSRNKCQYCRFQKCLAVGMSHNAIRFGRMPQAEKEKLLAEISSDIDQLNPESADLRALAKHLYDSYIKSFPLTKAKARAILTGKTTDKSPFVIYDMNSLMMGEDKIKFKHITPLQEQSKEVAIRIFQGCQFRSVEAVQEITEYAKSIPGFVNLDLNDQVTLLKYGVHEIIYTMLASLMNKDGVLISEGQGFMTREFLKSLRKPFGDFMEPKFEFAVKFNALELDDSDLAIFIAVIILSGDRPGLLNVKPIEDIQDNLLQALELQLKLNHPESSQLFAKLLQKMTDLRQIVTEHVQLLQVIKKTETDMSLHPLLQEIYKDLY

[1] = target: Norepinephrine transporter (Homo sapiens, UniProt P23975); test: Off target activity panel; assay type: binding; conditions: read-out: Inhibition at test concentration (%)
human TRPV1 receptor = human TRPV1 receptor (Homo sapiens, UniProt Q8NER1); test: Blockade of human TRPV1 receptor
GABAA channel = test: Off target activity panel; assay type: binding; conditions: 10 µM

Sequence of human TRPV1 receptor (Q8NER1 whole entry): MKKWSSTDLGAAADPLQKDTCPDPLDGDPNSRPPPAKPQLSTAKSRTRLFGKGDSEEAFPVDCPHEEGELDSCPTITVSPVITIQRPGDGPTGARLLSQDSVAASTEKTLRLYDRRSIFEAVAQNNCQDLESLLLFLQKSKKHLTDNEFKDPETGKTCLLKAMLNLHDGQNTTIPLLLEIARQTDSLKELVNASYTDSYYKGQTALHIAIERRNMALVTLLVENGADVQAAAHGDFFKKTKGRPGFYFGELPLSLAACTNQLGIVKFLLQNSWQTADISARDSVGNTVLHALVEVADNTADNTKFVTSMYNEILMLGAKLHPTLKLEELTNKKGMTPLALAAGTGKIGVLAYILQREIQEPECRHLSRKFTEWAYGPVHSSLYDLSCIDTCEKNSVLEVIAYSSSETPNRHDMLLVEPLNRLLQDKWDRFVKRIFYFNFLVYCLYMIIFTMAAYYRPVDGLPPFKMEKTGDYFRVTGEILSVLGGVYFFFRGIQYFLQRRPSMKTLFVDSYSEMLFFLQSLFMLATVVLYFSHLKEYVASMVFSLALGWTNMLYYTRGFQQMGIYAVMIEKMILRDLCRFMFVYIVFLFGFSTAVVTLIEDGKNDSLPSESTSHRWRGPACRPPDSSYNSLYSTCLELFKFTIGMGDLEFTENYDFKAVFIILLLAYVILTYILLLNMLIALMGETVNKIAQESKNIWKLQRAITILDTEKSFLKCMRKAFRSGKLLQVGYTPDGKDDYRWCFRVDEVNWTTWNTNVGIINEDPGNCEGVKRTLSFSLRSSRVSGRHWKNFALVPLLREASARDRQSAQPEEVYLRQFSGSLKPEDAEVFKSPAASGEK
Sequence of Norepinephrine transporter (P23975 whole entry): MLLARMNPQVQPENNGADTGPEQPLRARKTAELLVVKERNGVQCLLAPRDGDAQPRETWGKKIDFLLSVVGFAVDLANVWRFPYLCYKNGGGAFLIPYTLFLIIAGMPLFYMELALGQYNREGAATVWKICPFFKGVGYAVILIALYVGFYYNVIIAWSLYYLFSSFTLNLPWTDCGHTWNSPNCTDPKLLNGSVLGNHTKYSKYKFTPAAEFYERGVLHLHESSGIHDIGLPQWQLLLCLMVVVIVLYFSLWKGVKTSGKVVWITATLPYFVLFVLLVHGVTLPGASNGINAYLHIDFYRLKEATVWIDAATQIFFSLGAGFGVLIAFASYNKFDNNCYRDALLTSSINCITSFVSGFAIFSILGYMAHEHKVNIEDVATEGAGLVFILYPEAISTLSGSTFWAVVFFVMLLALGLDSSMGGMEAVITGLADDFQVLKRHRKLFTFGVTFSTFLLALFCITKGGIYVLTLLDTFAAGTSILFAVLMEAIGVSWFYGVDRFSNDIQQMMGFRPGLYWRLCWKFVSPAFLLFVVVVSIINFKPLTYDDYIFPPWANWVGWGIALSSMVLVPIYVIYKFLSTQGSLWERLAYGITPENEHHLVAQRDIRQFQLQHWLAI
Sequence of Serotonin 5-HT6 (P50406 whole entry): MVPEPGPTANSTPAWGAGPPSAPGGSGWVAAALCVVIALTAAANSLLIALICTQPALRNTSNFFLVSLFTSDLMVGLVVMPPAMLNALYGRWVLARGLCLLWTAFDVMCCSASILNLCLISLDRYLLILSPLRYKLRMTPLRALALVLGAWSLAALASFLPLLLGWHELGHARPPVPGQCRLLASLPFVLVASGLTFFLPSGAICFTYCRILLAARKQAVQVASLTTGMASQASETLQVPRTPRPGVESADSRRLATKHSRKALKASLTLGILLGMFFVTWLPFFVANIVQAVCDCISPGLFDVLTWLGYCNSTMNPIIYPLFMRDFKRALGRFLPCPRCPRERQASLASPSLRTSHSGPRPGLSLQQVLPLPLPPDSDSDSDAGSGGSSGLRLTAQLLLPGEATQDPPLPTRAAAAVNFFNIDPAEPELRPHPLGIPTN

Q: How did the inhibition at 10 µM (Serotonin 5-HT6) turn out when Nc1[nH]ncc1-c1cc(Cl)ccc1Oc1cc(F)c(S(=O)(=O)Nc2cscn2)cc1Cl [PF-05089771, 4-[2-(5-amino-1H-pyrazol-4-yl)-4-chlorophenoxy]-5-chloro-2-fluoro-N-(1,3-thiazol-4-yl)benzenesulfonamide] was run?
A: 2%

Q: And the Functional activity (PPAR gamma)?
A: no agonist or antagonist activity at 10 µM

Q: What about the inhibition at 10 µM [1] of the same compound?
A: 27%

Q: What about the Functional activity (human TRPV1 receptor; at 20 µM, TRPV1) of the same compound?
A: No agonist or antagonist activity at 20 µM

Q: What about the “Blockade of human TRPV1 receptor” value (human TRPV1 receptor; tested concentrations up to 20 μM) of the same compound?
A: No blockade

Q: What about the “Inhibition at test concentration (%)” value (GABAA channel) of the same compound?
A: 41%
